The record followed here is patent US20260347310A1, “PHENALKYLAMINES AND METHODS OF MAKING AND USING THE SAME” (GILGAMESH PHARMACEUTICALS, INC., priority 2022, published 2026).

Read-outs that look alike come from different tables or passages of the source.

The nature of this series: Pharmacokinetics in plasma of rats after oral and intravenous dosing; oral bioavailability. Type of series: in vivo, Sprague Dawley rats. On the procedure:
The pharmacokinetics of disclosed compounds were determined in the plasma of rats after oral and intravenous dosing, with the results presented in Table 13.
Animals. Male Sprague Dawley rats were used in these studies. Animals were randomly assigned to treatment groups and were fasted overnight before oral dosing.
Drugs. The test compound was dissolved in 10% captisol (1) or 10% DMSO and 90% normal saline (2a) and administered intravenously (iv) at 2 mg/kg (1) or 1 mg/kg (2a) or orally (po) at 10 mg/kg (1) or 1 mg/kg (2a), calculated based on freebase, and at a volume of 10 mL/kg body weight for oral administration and 5 mL/kg for IV administration. The compounds were tested as the racemates.
Sample Collection and Bioanalysis. Blood samples were collected through the external jugular vein (via cannulation) at 0.083, 0.25, 0.5, 1, 2, 4, 8, and 24 h post-dose (total 8 time points/rat, 4 rats per administration route). At each time point, ~0.2 mL of blood was withdrawn and transferred into a pre-labeled 0.5-mL micro centrifuge tube containing 4 μL of 200 mM K2EDTA solution as anticoagulant and mixed gently by inverting the tube to facilitate mixing of anticoagulant with the blood. Blood samples were kept on ice until centrifugation. The collected blood samples were centrifuged at 4,000 rpm for 10 min at 4° C. Plasma samples were separated after centrifugation, transferred into pre-labeled tubes, and stored at −70° C. until bioanalysis. For bioanalysis, a 200-μL aliquot of internal standard prepared in acetonitrile (cetirizine, 50 ng/mL) was added (except for blank, where 200 μL of acetonitrile was added) to a 96-well Solvinert filter plate followed by 5 μL of a study plasma sample or spiked calibration standard. The filter plate was then centrifuged for 5 minutes at a speed of 2,500 rpm at 4° C. with a 96-well sample collection plate. Following centrifugation, collected samples were analyzed using a fit-for-purpose LC-MS/MS method, with authentic samples of the analyte used for calibration and identification.
Data Analysis. Pharmacokinetic parameters were estimated using the non-compartmental analysis tool of Phoenix® WinNonlin software (Ver 8.1). The drug concentrations of samples below the lower limit of quantitation (LLOQ) were designated as zero.

One may read the bioavailability as the share of a dose that reaches the circulation, judged against a reference dose that is usually intravenous. The Cmax is the peak of the concentration-time curve. `CCC(N)Cc1cc(OC)c(CCCCCC(F)(F)F)cc1OC` (racemic) [Compound 2a, 1-(2,5-dimethoxy-4-(6,6,6-trifluorohexyl)phenyl)butan-2-amine] came in with a C0 (rat plasma, IV 1 mg/kg, racemate, 10% DMSO and 90% normal saline) of 75.9 ng/mL. The AUC(0-t) runs as follows: (rat plasma, IV 1 mg/kg, racemate, 10% DMSO and 90% normal saline, read-out: AUC0-last (iv)) 90 ng·h/mL; (rat plasma, PO 1 mg/kg, racemate, 10% DMSO and 90% normal saline, fasted, read-out: AUC0-last (po)) 25 ng·h/mL. In addition, the half-life was 2.71 h (rat plasma, IV 1 mg/kg, racemate, 10% DMSO and 90% normal saline, read-out: t1/2 (iv) (converted)); 3.07 h (rat plasma, PO 1 mg/kg, racemate, 10% DMSO and 90% normal saline, fasted, read-out: t1/2 (po) (converted)). Where the note is “rat plasma, IV and PO 1 mg/kg, racemate, 10% DMSO and 90% normal saline, read-out: F (absolute oral bioavailability)”, the bioavailability is 28%. For the same molecule, the highest level (rat plasma, PO 1 mg/kg, racemate, 10% DMSO and 90% normal saline, fasted) (Cmax) was 29.7 ng/mL. For the same molecule, the “absolute oral bioavailability (F) (in words)” value (rats, 2a 1 mg/kg iv and 1 mg/kg po, 1 2 mg/kg iv and 10 mg/kg po, racemates) is “improved absolute oral bioavailability (F), compared to 1”.
